This note sets out measurements from US20120214748A1, “NOVEL PEPTIDES, PROCESS FOR PREPARATION THEREOF, AND USE THEREOF” (priority 2009, published 2012).

In one test the target is T1, Trypsin (Bos taurus, UniProt P00760).
T1 sequence (P00760 24-246): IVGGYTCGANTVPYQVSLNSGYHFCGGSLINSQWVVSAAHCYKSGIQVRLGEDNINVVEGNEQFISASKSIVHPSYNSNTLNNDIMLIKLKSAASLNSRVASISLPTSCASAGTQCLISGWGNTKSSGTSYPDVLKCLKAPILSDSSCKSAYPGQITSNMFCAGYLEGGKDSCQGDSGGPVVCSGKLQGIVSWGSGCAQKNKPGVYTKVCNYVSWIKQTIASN
Nature of the test: Trypsin inhibition on Z-L-Lys-SBzl substrate.

Test [1] relates to MASP enzymes. Description: Preliminary experiments: binding of SGCI to MASP enzymes.
Test [2] has as its system MASP enzymes. Description: Preliminary experiments: inhibition of MASP enzymes by SGCI. The format is biochemical.
For test [3], the system named is classical pathway of the complement system. Nature of the test: WIELISA complement assay, classical pathway. The format is biochemical. Conditions: serum, FIG. 7. How it is done:
(§1) For measuring we used the so-called WIELISA kit (Euro-Diagnostica AB, COMPL300) developed for the selective measuring of the complement pathways, on the basis of the instructions for use attached to the kit. […] At the same time, the product detected during measuring is not a pathway-selective component, but the last element of the joint section of the activation pathways, the C5-9 complex.
(§2) The serum was diluted according to the prescriptions with the buffer belonging to the given complement pathway, it was incubated for 20 minutes at room temperature, the dilution sequence prepared from peptides was added to it, it was incubated for 20 minutes at room temperature, then it was pipetted into the appropriate wells of a special ELISA plate. In the following, washing, incubation and antibody addition was performed according to the instructions for use. It was incubated for 20 minutes with the substrate, and then the data was read at 450 nm in a spectrophotometer. A parallel belonged to each measuring point, 100% activity was represented by the serum without an inhibitor. The measurements were performed at the same time and on the same plate, from one single melted serum sample.

The subject of test [4] is intrinsic pathway of blood coagulation. Description: Activated partial thromboplastin time (APTT) in blood plasma. Conditions: peptide 200 μM, FIG. 6.c. How it is done: (§3) We performed blood coagulation measurements using blood plasma taken from healthy individuals. From the blood obtained through venipuncture and treated with sodium citrate (3.8% wt/vol) the plasma was isolated by centrifugation (2000 g, 15 minutes, Jouan CR412 centrifuge).
(§4) Prothrombin time (PT) testing the extrinsic pathway of blood coagulation was measured on Sysmex® CA-500 (Sysmex, Japan) automatic system using Innovin® Reagent (Dale Behring, Marburg, Germany). Activated partial thromboplastin time (APTT) testing the intrinsic pathway of blood coagulation and thrombin time (TT) directly testing thrombin operation was measured on a Coag-A-Mate® MAX (BioMerieux, France) analyser using TriniClot™ reagent (Trinity Biotech, Wichlow, Ireland) and Reanal™ reagent (Reanal Finechemical, Hungary).
(§5) To examine the effects of peptides on blood coagulation we measured dose dependency, the results are shown on the graphs in FIG. 6. […] On the ordinates time is determined in seconds, while on the abscissas the logarithm of the inhibitor concentration is shown in μM.
(§6) FIG. 6.a illustrates an experiment for measuring thrombin time, in the course of which plasma coagulation (fibrin formation) is initiated by adding thrombin to the plasma. […] The members of this protease cascade are inhibited with peptide used in increasing concentrations (abscissa), and the time needed for coagulation is measured (ordinate).

Test [5] relates to blood coagulation (thrombin operation). Nature of the test: Thrombin time (TT) in blood plasma. The conditions noted are these: peptide 200 μM, FIG. 6.a. How it is done:
as §3, §4, §5, §6

The target of a further test is Thrombin (Homo sapiens, UniProt P00734). Description: Thrombin inhibition with Z-Gly-Pro-Arg-pNa substrate. The format is biochemical.
In test [6] the test system is alternative pathway of the complement system. Description: WIELISA complement assay, alternative pathway. The format is biochemical. Conditions: serum, FIG. 7. How it is done:
as §1, §2

The test system of test [7] is lectin pathway of the complement system. Description: WIELISA complement assay, lectin pathway. Format: biochemical. The conditions noted are these: serum, FIG. 7. On the procedure:
as §1, §2

The subject of test [8] is extrinsic pathway of blood coagulation. Description: Prothrombin time (PT) in blood plasma. The conditions noted are these: peptide 200 μM, FIG. 6.b. How it is done: as §3, §4, §5, §6

Where two headings read alike, the source gives them in different places. Bridge positions count the residues as written; N and C are the ends. Peptide text beside a SMILES is read from it.

`CC[C@H](C)[C@H](NC(=O)[C@@H]1CSSC[C@H](NC(=O)[C@H](CCSC)NC(=O)CN)C(=O)N[C@@H](CO)C(=O)N[C@@H](CCCNC(=N)N)C(=O)N[C@@H](CO)C(=O)N[C@@H](Cc2ccc(O)cc2)C(=O)N2CCC[C@H]2C(=O)N2CCC[C@H]2C(=O)N[C@@H](C(C)C)C(=O)N1)C(=O)N1CCC[C@H]1C(=O)N[C@@H](CC(=O)O)C(=O)O` [M2-6E-Y2M] (H-GMCSRSYPPVCIPD-OH; disulfide 3-11; N-terminus and C-terminus assumed) yielded a Ki at Trypsin of 4000 nM.
Still for that read-out and setting: in the case of `CC[C@H](C)[C@@H]1NC(=O)CNC(=O)[C@H](CC(=O)O)NC(=O)[C@@H]2CCCN2C(=O)[C@H]([C@@H](C)CC)NC(=O)[C@@H]2CSSC[C@H](NC1=O)C(=O)N[C@@H](CO)C(=O)N[C@@H](CCCNC(=N)N)C(=O)N[C@@H](CO)C(=O)N[C@@H](CC(C)C)C(=O)N1CCC[C@H]1C(=O)N1CCC[C@H]1C(=O)N[C@@H]([C@@H](C)CC)C(=O)N2` [M2-4G cyclic] (cyclo(CIPDGICSRSLPPI); disulfide 1-7) it was 350 nM; in that of `CC[C@H](C)[C@@H]1NC(=O)[C@@H]2CCCN2C(=O)[C@@H]2CCCN2C(=O)[C@H](CC(C)C)NC(=O)[C@H](CO)NC(=O)[C@H](CCCNC(=N)N)NC(=O)[C@H](CO)NC(=O)[C@@H](NC(=O)[C@@H](NC(=O)CN)C(C)C)CSSC[C@@H](C(=O)N[C@@H](Cc2c[nH]c3ccccc23)C(=O)N2CCC[C@H]2C(=O)N[C@@H](CC(=O)O)C(=O)O)NC1=O` [M1-3E-Y12W] (H-GVCSRSLPPICWPD-OH; disulfide 3-11; N-terminus and C-terminus assumed), 170 nM.
On to “SGCI: Schistocerca Gregaria Chymotrypsin Inhibitor, chymotrypsin inhibitor molecule fused to the SFTI library for monovalent phage display (EVTCEPGTTFKDKCNTCRCGSDGKSAACTLKACPQ)”, for which, in the test with MASP enzymes [1], the “binding to MASP enzymes” value was “does not even bind to these enzymes”. Also, the “inhibition of MASP enzymes” value with MASP enzymes [2] is on record as “does not inhibit MASP enzymes”.
On Trypsin, `CC[C@H](C)[C@H](NC(=O)[C@@H]1CSSC[C@H](NC(=O)[C@H](Cc2ccc(O)cc2)NC(=O)CN)C(=O)N[C@@H](CO)C(=O)N[C@@H](CCCNC(=N)N)C(=O)N[C@@H](CO)C(=O)N[C@@H]([C@@H](C)CC)C(=O)N2CCC[C@H]2C(=O)N2CCC[C@H]2C(=O)N[C@@H](C(C)C)C(=O)N1)C(=O)N1CCC[C@H]1C(=O)N[C@@H](CC(=O)O)C(=O)O` [M2-6E-Y7I] (H-GYCSRSIPPVCIPD-OH; disulfide 3-11; N-terminus and C-terminus assumed) had a Ki of 160 nM.
As to `CC[C@H](C)[C@H](NC(=O)[C@@H]1CSSC[C@H](NC(=O)[C@H](Cc2c[nH]c3ccccc23)NC(=O)CN)C(=O)N[C@@H](CO)C(=O)N[C@@H](CCCNC(=N)N)C(=O)N[C@@H](CO)C(=O)N[C@@H](Cc2ccc(O)cc2)C(=O)N2CCC[C@H]2C(=O)N2CCC[C@H]2C(=O)N[C@@H](C(C)C)C(=O)N1)C(=O)N1CCC[C@H]1C(=O)N[C@@H](CC(=O)O)C(=O)O` [M2-6E-Y2W] (H-GWCSRSYPPVCIPD-OH; disulfide 3-11; N-terminus and C-terminus assumed), at Trypsin, the Ki came to 1700 nM.
`CC[C@H](C)[C@H](NC(=O)CN)C(=O)N[C@H]1CSSC[C@@H](C(=O)N[C@H](C(=O)N2CCC[C@H]2C(=O)N[C@@H](CC(=O)O)C(=O)O)[C@@H](C)CC)NC(=O)[C@H]([C@@H](C)CC)NC(=O)[C@@H]2CCCN2C(=O)[C@@H]2CCCN2C(=O)[C@H](CC(C)C)NC(=O)[C@H](CO)NC(=O)[C@H](CCCNC(=N)N)NC(=O)[C@H](CO)NC1=O` [M2-4G] (H-GICSRSLPPICIPD-OH; disulfide 3-11; N-terminus and C-terminus assumed): the “inhibition of the classical pathway (C5-9 complex)” value in test [3] is “neither “S” peptide nor the “NS” peptide inhibited”. The results for the Ki at Trypsin and at Thrombin (read-out: Ki value on thrombin) were 260 nM and 10000 nM, respectively. The “trypsin inhibition compared to wild-type SFTI-1” value at Trypsin is recorded as “much weaker on trypsin than wild-type SFTI-1”. For the same compound, the “activated thromboplastin time, effect on coagulation” value in test [4] is “reached the extreme measuring value”. Moreover, the “thrombin time, effect on coagulation” value in test [5] is listed as “reached the extreme measuring value”. On Thrombin, the “thrombin inhibition” value was “poor thrombin inhibitor”. Also, in [6], the “inhibition of the alternative pathway (C5-9 complex)” value is “neither “S” peptide nor the “NS” peptide inhibited”. For the same compound, in [7], the “inhibition of the lectin pathway (C5-9 complex)” value is “efficient and specific inhibitors of the lectin pathway”. In addition, the “prothrombin time, effect on coagulation” value in test [8] is reported as “reached the extreme measuring value”.
Consider `CC[C@H](C)[C@@H]1NC(=O)[C@@H]2CCCN2C(=O)[C@@H]2CCCN2C(=O)[C@H]([C@@H](C)CC)NC(=O)[C@H](CO)NC(=O)[C@H](CCCCN)NC(=O)[C@H]([C@@H](C)O)NC(=O)[C@@H](NC(=O)[C@H](CCCNC(=N)N)NC(=O)CN)CSSC[C@@H](C(=O)N[C@@H](Cc2ccccc2)C(=O)N2CCC[C@H]2C(=O)N[C@@H](CC(=O)O)C(=O)O)NC1=O` [wild-type SFTI, reference compound], for which, on Thrombin, the inhibition constant (Ki) was 140000 nM.

Usually Ki stands for the dissociation constant of the complex between target and ligand, obtained from inhibition or displacement.
